Results taken from patent US12338287B2, “Treatment of cancer using a CD33 chimeric antigen receptor” (Novartis AG, priority 2014, dated 2025).
Read-outs that look alike come from different tables or passages of the source.

Legend:
[1] = system: huCART19 cells co-cultured with Nalm-6; assay: Effect of RAD001 on CART proliferation, 4 day co-culture; type: cell-based, human
Description: To evaluate the functionality of CARTs, the T cells are thawed and counted, and viability is assessed by Cellometer. The number of CAR-positive cells in each culture is normalized using non-transduced T cells (UTD). The impact of RAD001 on CARTs was tested in titrations with RAD001, starting at 50 nM. The target cell line used in all co-culture experiments is Nalm-6, a human pre-B cell acute lymphoblastic leukemia (ALL) cell line expressing CD19 and transduced to express luciferase.
For measuring the proliferation of CARTs, T cells are cultured with target cells at a ratio of 1:1. The assay is run for 4 days, when cells are stained for CD3, CD4, CD8 and CAR expression. The number of T cells is assessed by flow cytometry using counting beads as reference.

[2] = system: huCAR19 CAR T cells; assay: CAR T cell expansion in vivo with RAD001 (FACS); set-up: species or system NSG mice; conditions: lowest doses of RAD001, daily oral; FIG. 57
Description: CAR T cell dosing: Mice were administered 5×10^6 CAR T cells 7 days after tumor implantation. Cells were partially thawed in a 37 degree Celsius water bath and then completely thawed by the addition of 1 ml of cold sterile PBS to the tube containing the cells. The thawed cells were transferred to a 15 ml falcon tube and adjusted to a final volume of 10 mls with PBS. The cells were washed twice at 1000 rpm for 10 minutes each time and then counted on a hemocytometer. T cells were then resuspended at a concentration of 50×10^6 CAR T cells per ml of cold PBS and kept on ice until the mice were dosed. The mice were injected intravenously via the tail vein with 100 μl of the CAR T cells for a dose of 5×10^6 CAR T cells per mouse. Eight mice per group were treated either with 100 μl of PBS alone (PBS), or humanized CD19 CAR T cells.
(§1) RAD001 dosing: A concentrated micro-emulsion of 50 mg equal to 1 mg RAD001 was formulated and then resuspended in D5W (dextrose 5% in water) at the time of dosing. Mice were orally dosed daily (via oral gavage) with 200 μl of the desired doses of RAD001.
Based on these doses, huCAR19 CAR T cells were dosed with and without RAD001 to determine the proliferative ability of these cells. The highest dose used was 3 mg/kg based on the levels of RAD001 in the blood 24 hours after dosing. […] Mice were monitored via FACS for T cell expansion.

[3] = system: NALM6-luc tumors; assay: RAD001 alone on NALM6-luc tumor growth; type: in vivo, NSG mice; conditions: daily oral dosing of RAD001 alone; FIG. 55
Description: NALM6-luc cells: The NALM6 human acute lymphoblastic leukemia (ALL) cell line was developed from the peripheral blood of a patient with relapsed ALL. The cells were then tagged with firefly luciferase. These suspension cells grow in RPMI supplemented with 10% heat inactivated fetal bovine serum.
Mice: 6 week old NSG (NOD.Cg-Prkdc^scidIl2rg^tmIWjl/SzJ) mice were received from the Jackson Laboratory (stock number 005557).
Tumor implantation: NALM6-luc cells were grown and expanded in vitro in RPMI supplemented with 10% heat inactivated fetal bovine serum. The cells were then transferred to a 15 ml conical tube and washed twice with cold sterile PBS. NALM6-luc cells were then counted and resuspended at a concentration of 10×10^6 cells per milliliter of PBS. The cells were placed on ice and immediately (within one hour) implanted in the mice. NALM6-luc cells were injected intravenously via the tail vein in a 100 μl volume, for a total of 1×10^6 cells per mouse.
as §1

[4] = system: humanized CD19 CART cells; assay: In vivo proliferation of humanized CD19 CART cells with and without RAD001; conditions: 0.003 mg/kg daily with huCTL019; CD4+ and CD8+ CAR T cells
Description: FIGS. 57A and 57B show in vivo proliferation of humanized CD19 CART cells with and without RAD001 dosing. […] Circles denote PBS; squares denote huCTL019; triangles denote huCTL019 with 3 mg/kg RAD001; inverted triangles denote huCTL019 with 0.3 mg/kg RAD001; diamonds denote huCTL019 with 0.03 mg/kg RAD001; and circles denote huCTL019 with 0.003 mg/kg RAD001.

[5] = system: CAR-expressing, transduced T cells; assay: CART proliferation in co-culture with Nalm-6 cells in presence of RAD001; type: cell-based; conditions: CARTs co-cultured with Nalm-6 cells, different concentrations of RAD001, 4 days
Description: CARTs were co-cultured with Nalm-6 cells in the presence of different concentrations of RAD001. The number of CAR-positive CD3-positive T cells (black) and total T cells (gray) was assessed after 4 days of co-culture.

[6] = RAD001 PK analysis in tumor bearing mice; type: in vivo, NSG mice; conditions: for concentration at 24 h: NSG, mouse, whole blood
Description: as §1
PK analysis: Mice were dosed daily with RAD001 starting 7 days post tumor implantation. Dosing groups were as follows: 0.3 mg/kg, 1 mg/kg, 3 mg/kg, and 10 mg/kg. Mice were bled on days 0 and 14 following the first and last dose of RAD001, at the following time points for PK analysis: 15 minutes, 30 minutes, 1 hour, 2 hours, 4 hours, 8 hours, 12 hours, and 24 hours.

[7] = target: hsCD33 (Homo sapiens, UniProt P20138); assay: Cell surface scFv on JNL cells detected with recombinant Fc-tagged hsCD33; type: binding; conditions: recombinant Fc-tagged hsCD33, PE secondary antibody; relative to GFP or CD19 scFv JNL cells
Description: (§2) FIG. 27 is an image depicting the cell surface expression of scFvs on a Jurkat T cell line, which contains a luciferase reporter driven by an NFAT-regulated promoter (termed JNL cells). JNL cells were transduced with a lentiviral vector expressing a cDNA encoding GFP, a scFv that binds to CD19, or cDNAs that encode an scFv, which was raised against hsCD33. The cell surface expression of individual scFv's on JNLs was detected by incubating cells with recombinant Fc-tagged hsCD33 followed by incubation with an Fc-specific secondary antibody conjugated to phycoerythrin.
as §2, with “To depict the” for “FIG. 27 is an image depicting the”, “of scFv's” for “of scFvs”, “JNL cells),” for “JNL cells).”, “GFP, an” for “GFP, a”, “against hsCD33 (FIG. 27).” for “against hsCD33.”

[8] = system: protein L; assay: Protein L binding of scFv on JNL cells; conditions: data not shown
[9] = system: MOLM13; assay: NFAT-dependent luciferase reporter activation of JNL cells; type: cell-based; conditions: JNL cells co-cultured with MOLM13 relative to MOLP8 or GFP JNL cells; 24 hours
From the text: FIGS. 28A, 28B, 28C, and 28D are images showing the ability of individual scFv's targeting hsCD33 to elicit NFAT activity in JNL cells. JNL cells expressing scFv's against hsCD33 were co-cultured with MOLM13 or MOLP8 cell lines, which express hsCD33 or lack hsCD33 cell surface expression, respectively (FIG. 28A; hsCD33, solid green line; isotype control, gray dashed line and shaded area). FIG. 28B depicts the activation of JNL cells expressing an scFv targeting hsCD33 in the presence of MOLM13 (solid lines) or MOLP8 (dashed lines) cells. JNL cells expressing individual scFv's were plated at different effector (i.e. JNL cells) to target (i.e. MOLM13 or MOLP8) ratios and analyzed for the expression of relative luciferase units (RLUs) using the Bright-Glo™ Luciferase Assay on the EnVision instrument 24 hours post-incubation. FIG. 28C is a version of FIG. 28B, depicting the activation of JNL cells in the presence of MOLM13. […]
Individual scFv's targeting hsCD33 were evaluated for their ability to elicit NFAT activity in JNL cells (FIG. 28). […] JNL cells expressing individual scFv's were plated at different effector (i.e. JNL cells) to target (i.e. MOLM13 or MOLP8) ratios and analyzed for the expression of relative luciferase units (RLUs) using the Bright-Glo™ Luciferase Assay on the EnVision instrument 24 hours post-incubation.

[10] = target: recombinant Fc-tagged hsCD33 (Homo sapiens, UniProt P20138); assay: scFv binding to recombinant CD33 by flow cytometry (JNL cells); conditions: scFv on JNL cells, Fc-tagged hsCD33, PE secondary; FIG. 32
Description: Finally, scFv cross-reactivity to cynomolgus CD33 (cyCD33) was assessed by flow cytometry as depicted in FIG. 32. JNL cells transduced with a lentiviral vector expressing scFv's raised against hsCD33 were incubated with either recombinant Fc-tagged hsCD33 (red line) or cyCD33 (blue line) followed by incubation with an Fc-specific secondary antibody conjugated to phycoerythrin.

hsCD33, sequence (P20138 18-259 limits assumed): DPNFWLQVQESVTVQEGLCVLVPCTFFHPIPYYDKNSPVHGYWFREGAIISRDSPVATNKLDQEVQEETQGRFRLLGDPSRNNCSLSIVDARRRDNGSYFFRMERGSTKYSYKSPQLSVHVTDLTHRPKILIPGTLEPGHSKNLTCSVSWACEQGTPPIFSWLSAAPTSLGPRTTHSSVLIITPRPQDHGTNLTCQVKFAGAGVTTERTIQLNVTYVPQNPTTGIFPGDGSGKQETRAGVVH
recombinant Fc-tagged hsCD33, sequence (P20138 18-259 limits assumed): as above

## CO[C@H]1C[C@@H]2CC[C@@H](C)[C@@](O)(O2)C(=O)C(=O)N2CCCC[C@H]2C(=O)O[C@H]([C@H](C)C[C@@H]2CC[C@@H](OCCO)[C@H](OC)C2)CC(=O)[C@H](C)/C=C(\C)[C@@H](O)[C@@H](OC)C(=O)[C@H](C)C[C@H](C)/C=C/C=C/C=C/1C [RAD001, (1R,9S,12S,15R,16E,18R,19R,21R,23 S,24E,26E,28E,30S,32S,35R)-1,18-dihydroxy-12-{(1R)-2-[(1 S,3R,4R)-4-(2-hydroxyethoxy)-3-methoxycyclohexyl]-1-methylethyl}-19,30-dimethoxy-15,17,21,23,29,35-hexamethyl-11,36-dioxa-4-aza-tricyclo[30.3.1.04,9]hexatriaconta-16,24,26,28-tetraene-2,3,10,14,20-pentaone]
[1]; 0.0032 and 0.016 nM RAD001, 4 day co-culture with Nalm-6, FIG. 54
  Proliferation of huCART19 cells: proliferation was higher than observed without the addition of RAD001
[1]; 4 day co-culture with Nalm-6
  RAD001 concentration at which huCART19 cells expanded: less than 0.016 nM
[2]
  Proliferation of the CAR T cells in vivo: enhanced proliferation of the CAR T cells
[3]
  Growth of NALM6-luc tumors: did not have an impact on the growth of NALM6-luc tumors
[4]
  CAR T cell proliferation in vivo: enhancement in CAR T cell proliferation, above the normal level of huCAR19 proliferation
[5]
  Proliferation of CAR-expressing, transduced T cells: enhanced by low doses of RAD001
[6]; oral, 0.3 mg/kg, 24 hours after the final dose of RAD001, read-out: Concentration of RAD001
  concentration at 24 h: > 10 nM
[6]; 24 hours after dosing, 0.3 mg/kg oral, day 0 and day 14, read-out: RAD001 concentrations in the blood
  concentration at 24 h: > 10 nM
[6]; tumor bearing mice, FIGS. 56A, 56B
  Stability in the blood: fairly stable in the blood

B1: CD33-8: fully human anti-CD33 scFv CAR with 4-1BB and CD3zeta; full CAR SEQ ID NO: 55, scFv SEQ ID NO: 46 (protein)
chain: MALPVTALLLPLALLLHAARPQVQLVQSGAEVKKPGASVRVSCKASGYMFTDFFIHWVRQAPGQGLEWMGWINPNSGVTKYAQKFQGRVTMTRNTSISTAYMELSSLRSEDTAVYYCATWYSSGWYGIANIWGQGTMVTVSSASGGGGSGGGGSGGGGSDIQLTQSPSSLSASVGDRVTITCQASHDISNYLHWYQQKPGKAPKLLIYDASNLETGVPSRFTGSGSGTDFTLTIRSLQPEDVAAYYCQQSDDLPHTFGQGTKVDIKTTTPAPRPPTPAPTIASQPLSLRPEACRPAAGGAVHTRGLDFACDIYIWAPLAGTCGVLLLSLVITLYCKRGRKKLLYIFKQPFMRPVQTTQEEDGCSCRFPEEEEGGCELRVKFSRSADAPAYKQGQNQLYNELNLGRREEYDVLDKRRGRDPEMGGKPRRKNPQEGLYNELQKDKMAEAYSEIGMKGERRRGKGHDGLYQGLSTATKDTYDALHMQALPPR
[7]
  Binding to hsCD33 (cell surface scFv on JNL cells): lacked appreciable binding to either hsCD33 or protein L
[8]
  Binding to protein L: lacked appreciable binding to either hsCD33 or protein L

B2: CD33-UPenn: an scFv based on the sequence of Mylotarg, a monoclonal antibody that binds to the human CD33 antigen (protein)
chain: EIVLTQSPGSLAVSPGERVTMSCKSSQSVFFSSSQKNYLAWYQQIPGQSPRLLIYWASTRESGVPDRFTGSGSGTDFTLTISSVQPEDLAIYYCHQYLSSRTFGQGTKLEIKRGGGGSGGGGSSGGGSQVQLQQPGAEVVKPGASVKMSCKASGYTFTSYYIHWIKQTPGQGLEWVGVIYPGNDDISYNQKFQGKATLTADKSSTTAYMQLSSLTSEDSAVYYCAREVRLRYFDVWGQGTTVTVSS
modifications: left off: small tags and cut ends
[9]
  NFAT-dependent luciferase activity (RLUs): capable of triggering NFAT-dependent luciferase activity
[10]
  Binding of hsCD33: capable of binding hsCD33
